{"source": "paper PMC3048208", "about": "(British Journal of Cancer, 2011)", "system": "advanced solid tumours", "assay": "Anti-tumour activity (RECIST 1.0)", "type": "in vivo, human", "conditions": "for Period of disease stabilisation: colorectal carcinoma patient", "description": "For patients with measurable disease at baseline, response was assessed using the Response and Evaluation Criteria in Solid Tumours version 1.0 ([Therasse et al, 2000]).", "note": "Structures can show the parent of a compound that is named as a salt.", "data": [{"smiles": "CCCCc1nc2cc(/C=C/C(=O)NO)ccc2n1CCN(CC)CC", "note": "[SB939, 3-[2-butyl-1-(2-diethylaminoethyl)-1H-benzoimidazol-5-yl]-N-hydroxyacrylami-hydrochloride]", "values": [{"measurement": "Objective tumour responses", "setting": "31 evaluable patients", "result": "No objective tumour responses"}, {"measurement": "Period of disease stabilisation", "setting": "dose level 2", "result": 8.1, "unit": "months"}, {"measurement": "Period of disease stabilisation", "setting": "dose level 3", "result": 10.8, "unit": "months"}, {"measurement": "Period of disease stabilisation", "setting": "dose level 4", "result": 7.4, "unit": "months"}, {"measurement": "Disease stabilisation of >6 months, no. of patients", "setting": "metastatic colorectal carcinoma", "result": "Three"}, {"measurement": "Best response stable disease", "setting": "of the 31 evaluable", "result": 32, "unit": "%"}, {"measurement": "Best response stable disease, no. of patients", "setting": "of the 31 evaluable", "result": "Ten"}, {"measurement": "Disease progression", "setting": "of the 31 evaluable", "result": 68, "unit": "%"}, {"measurement": "Disease progression, no. of patients", "setting": "of the 31 evaluable", "result": 21}, {"measurement": "Median duration of disease control", "setting": "patients with SD", "result": 5.7, "unit": "months"}, {"measurement": "Range of duration of disease control", "setting": "patients with SD", "result": "1.8–10.8 months"}]}]}
